Where two headings read alike, the source gives them in different places.
Legend:
[1] = tested on: mouse FL5.12 cells transfected with Bcl-XL; assay: FL5.12 cellular assay (cell viability, CellTiter-Glo); format: cell-based;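 note: each EC50 determination derived from duplicate measurements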
GST-Bcl-xL = GST-Bcl-xL (Homo sapiens, UniProt Q07817); settings: read-out: TR-FRET binding Bcl-xL Ki
[2] = Mus musculus, FL5.12 cells transfected with Bcl-XL, IL-3-depleted, 3% FBS assay media, 24 hours, CellTiter-Glo, read-out: FL5.12 Bcl-xL, - IL3, EC 50
[3] = FL5.12 cells transfected with Bcl-XL, IL-3-depleted, 3% FBS assay media, 24 hours, CellTiter-Glo, read-out: FL5.12 Bcl-xL, - IL3, EC 50

GST-Bcl-xL, sequence (Q07817 whole entry): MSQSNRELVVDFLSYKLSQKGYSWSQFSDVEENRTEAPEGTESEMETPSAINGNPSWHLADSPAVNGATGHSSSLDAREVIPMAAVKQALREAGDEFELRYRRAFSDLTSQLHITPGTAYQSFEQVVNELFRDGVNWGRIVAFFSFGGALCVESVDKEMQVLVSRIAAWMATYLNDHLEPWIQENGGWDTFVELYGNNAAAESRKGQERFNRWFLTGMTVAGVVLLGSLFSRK

Structure (SMILES)	EC50 [1, 2]	Ki (GST-Bcl-xL)	EC50 [1, 3]	EC50 ([1]; Mus musculus, FL5.12, 24 h, read-out: FL5.12 Bcl-xL, - IL3, EC 50 (nM))
Cc1c(-c2ccc(N3CCc4cccc(C(=O)Nc5nc6ccccc6s5)c4C3)nc2C(=O)O)cnn1Cc1ccccc1F [Example 41, 6-[8-(1,3-benzothiazol-2-ylcarbamoyl)-3,4-dihydroisoquinolin-2(1H)-yl]-3-[1-(2-fluorobenzyl)-5-methyl-1H-pyrazol-4-yl]pyridine-2-carboxylic acid]	11 nM	1 nM		
N#Cc1c(OC2CCCCC2)cccc1-c1ccc(N2CCc3cccc(C(=O)Nc4nc5ccccc5s4)c3C2)nc1C(=O)O [Example 116, 6-[8-(1,3-benzothiazol-2-ylcarbamoyl)-3,4-dihydroisoquinolin-2(1H)-yl]-3-[2-cyano-3-(cyclohexyloxy)phenyl]pyridine-2-carboxylic acid]	667 nM	< 0.1 nM		
O=C(Nc1nc2ccccc2s1)c1cccc2c1CN(c1ccc(-c3cnn(-c4ccccc4)c3)c(C(=O)O)n1)CC2 [Example 23, 6-[8-(1,3-benzothiazol-2-ylcarbamoyl)-3,4-dihydroisoquinolin-2(1H)-yl]-3-(1-phenyl-1H-pyrazol-4-yl)pyridine-2-carboxylic acid]	> 1000 nM	182 nM		
Cc1c(-c2ccc(N3CCc4cccc(C(=O)Nc5nc6ccccc6s5)c4C3)nc2C(=O)O)cnn1Cc1ccccc1OCC(C)(CO)CO [Example 98, 6-[8-(1,3-benzothiazol-2-ylcarbamoyl)-3,4-dihydroisoquinolin-2(1H)-yl]-3-(1-{2-[3-hydroxy-2-(hydroxymethyl)-2-methylpropoxy]benzyl}-5-methyl-1H-pyrazol-4-yl)pyridine-2-carboxylic acid]	421 nM	2 nM		
COCCOC1(Cn2c(C#N)cc(-c3ccc(N4CCc5cccc(C(=O)Nc6nc7ccccc7s6)c5C4)nc3C(=O)O)c2C)CCCCCC1 [Example 172, 6-[8-(1,3-benzothiazol-2-ylcarbamoyl)-3,4-dihydroisoquinolin-2(1H)-yl]-3-(5-cyano-1-{[1-(2-methoxyethoxy)cycloheptyl]methyl}-2-methyl-1H-pyrrol-3-yl)pyridine-2-carboxylic acid]	1 nM	< 0.1 nM		
Cc1c(-c2ccc(N3CCc4cccc(C(=O)Nc5nc6ccccc6s5)c4C3C)nc2C(=O)O)cnn1CC1(C)CCCCC1 (stereo not shown) [Example 163, 6-[8-(1,3-benzothiazol-2-ylcarbamoyl)-1-methyl-3,4-dihydroisoquinolin-2(1H)-yl]-3-{5-methyl-1-[(1-methylcyclohexyl)methyl]-1H-pyrazol-4-yl}pyridine-2-carboxylic acid]	211 nM	0.4 nM		
Cc1c(-c2ccc(N3CCc4cccc(C(=O)Nc5nc6ccccc6s5)c4C3)nc2C(=O)O)cnn1Cc1ccccc1OCCN(C)C [Example 49, 6-[8-(1,3-benzothiazol-2-ylcarbamoyl)-3,4-dihydroisoquinolin-2(1H)-yl]-3-(1-{2-[2-(dimethylamino)ethoxy]benzyl}-5-methyl-1H-pyrazol-4-yl)pyridine-2-carboxylic acid]	12 nM	0.6 nM		
COc1cccc(Cn2cc(-c3ccc(N4CCc5cccc(C(=O)Nc6nc7ccccc7s6)c5C4)nc3C(=O)O)cn2)c1 [Example 14, 6-[8-(1,3-benzothiazol-2-ylcarbamoyl)-3,4-dihydroisoquinolin-2(1H)-yl]-3-[1-(3-methoxybenzyl)-1H-pyrazol-4-yl]pyridine-2-carboxylic acid]		12 nM	> 1000 nM	
Cc1c(-c2ccc(N3CCc4cccc(C(=O)Nc5nc6ccccc6s5)c4C3)nc2C(=O)O)cnn1CC1(OCCCN2CCOCC2)CCCCCC1 [Example 155, 6-[8-(1,3-benzothiazol-2-ylcarbamoyl)-3,4-dihydroisoquinolin-2(1H)-yl]-3-[5-methyl-1-({1-[3-(morpholin-4-yl)propoxy]cycloheptyl}methyl)-1H-pyrazol-4-yl]pyridine-2-carboxylic acid]	7 nM	< 0.1 nM		
Cc1c(-c2ccc(N3CCc4cccc(C(=O)Nc5nc6ccccc6s5)c4C3)nc2C(=O)O)cnn1CC1CCC(F)(F)CC1 [Example 73, 6-[8-(1,3-benzothiazol-2-ylcarbamoyl)-3,4-dihydroisoquinolin-2(1H)-yl]-3-{1-[(4,4-difluorocyclohexyl)methyl]-5-methyl-1H-pyrazol-4-yl}pyridine-2-carboxylic acid]	8 nM	0.9 nM		
Cc1c(-c2ccc(N3CCc4cccc(C(=O)Nc5nc6ccccc6s5)c4C3)nc2C(=O)O)cccc1N(C)C(=O)C1(C)CCCCC1 [Example 179, 6-[8-(1,3-benzothiazol-2-ylcarbamoyl)-3,4-dihydroisoquinolin-2(1H)-yl]-3-(2-methyl-3-{methyl[(1-methylcyclohexyl)carbonyl]amino}phenyl)pyridine-2-carboxylic acid]		< 0.1 nM		6 nM
Cc1c(-c2ccc(N3CCc4cccc(C(=O)Nc5nc6ccccc6s5)c4C3)nc2C(=O)O)cnn1Cc1ccccc1OCCN1CCOCC1 [Example 79, 6-[8-(1,3-benzothiazol-2-ylcarbamoyl)-3,4-dihydroisoquinolin-2(1H)-yl]-3-(5-methyl-1-{2-[2-(morpholin-4-yl)ethoxy]benzyl}-1H-pyrazol-4-yl)pyridine-2-carboxylic acid]	19 nM	0.5 nM		
O=C(Nc1nc2ccccc2s1)c1cccc2c1CN(c1ccc(-c3cccc(OC4CCCCC4)c3F)c(C(=O)O)n1)CC2 [Example 119, 6-[8-(1,3-benzothiazol-2-ylcarbamoyl)-3,4-dihydroisoquinolin-2(1H)-yl]-3-[3-(cyclohexyloxy)-2-fluorophenyl]pyridine-2-carboxylic acid]		< 0.1 nM	762 nM	
Cc1c(-c2ccc(N3CCc4cccc(C(=O)Nc5nc6ccccc6s5)c4C3)nc2C(=O)O)cnn1CC1CCCCO1 (stereo not shown) [Example 154, 6-[8-(1,3-benzothiazol-2-ylcarbamoyl)-3,4-dihydroisoquinolin-2(1H)-yl]-3-[5-methyl-1-(tetrahydro-2H-pyran-2-ylmethyl)-1H-pyrazol-4-yl]pyridine-2-carboxylic acid]	15 nM	< 0.1 nM		
CS(=O)(=O)c1cccc(Cn2cc(-c3ccc(N4CCc5cccc(C(=O)Nc6nc7ccccc7s6)c5C4)nc3C(=O)O)cn2)c1 [Example 69, 6-[8-(1,3-benzothiazol-2-ylcarbamoyl)-3,4-dihydroisoquinolin-2(1H)-yl]-3-{1-[3-(methylsulfonyl)benzyl]-1H-pyrazol-4-yl}pyridine-2-carboxylic acid]	> 1000 nM	91 nM		
O=C(Nc1nc2ccccc2s1)c1cccc2c1CN(c1ccc(-c3cnn(CC4(C(F)(F)F)CCCCC4)c3)c(C(=O)O)n1)CC2 [Example 74, 6-[8-(1,3-benzothiazol-2-ylcarbamoyl)-3,4-dihydroisoquinolin-2(1H)-yl]-3-(1-{[1-(trifluoromethyl)cyclohexyl]methyl}-1H-pyrazol-4-yl)pyridine-2-carboxylic acid]	335 nM	6 nM		
O=C(Nc1nc2ccccc2s1)c1cccc2c1CN(c1ccc(-c3cnn(CC4CCCCC4)c3)c(C(=O)O)n1)CC2 [Example 42, 6-[8-(1,3-benzothiazol-2-ylcarbamoyl)-3,4-dihydroisoquinolin-2(1H)-yl]-3-[1-(cyclohexylmethyl)-1H-pyrazol-4-yl]pyridine-2-carboxylic acid]	233 nM	2 nM		
Cc1c(OCC2CCCCC2)cccc1-c1ccc(N2CCc3cccc(C(=O)Nc4nc5ccccc5s4)c3C2)nc1C(=O)O [Example 112, 6-[8-(1,3-benzothiazol-2-ylcarbamoyl)-3,4-dihydroisoquinolin-2(1H)-yl]-3-[3-(cyclohexylmethoxy)-2-methylphenyl]pyridine-2-carboxylic acid]	523 nM	0.7 nM		
CC(C)(C)Cn1cc(-c2ccc(N3CCc4cccc(C(=O)Nc5nc6ccccc6s5)c4C3)nc2C(=O)O)cn1 [Example 59, 6-[8-(1,3-benzothiazol-2-ylcarbamoyl)-3,4-dihydroisoquinolin-2(1H)-yl]-3-[1-(2,2-dimethylpropyl)-1H-pyrazol-4-yl]pyridine-2-carboxylic acid]		424 nM	> 1000 nM	
Cc1c(OC2CCCC(C)(C)C2)cccc1-c1ccc(N2CCc3cccc(C(=O)Nc4nc5ccccc5s4)c3C2)nc1C(=O)O (stereo not shown) [Example 121, 6-[8-(1,3-benzothiazol-2-ylcarbamoyl)-3,4-dihydroisoquinolin-2(1H)-yl]-3-{3-[(3,3-dimethylcyclohexyl)oxy]-2-methylphenyl}pyridine-2-carboxylic acid]	82 nM	0.1 nM		
Cc1c(-c2ccc(N3CCc4cccc(C(=O)Nc5nc6ccccc6s5)c4C3)nc2C(=O)O)ccnc1N1CCCCC1 [Example 183, 6-[8-(1,3-benzothiazol-2-ylcarbamoyl)-3,4-dihydroisoquinolin-2(1H)-yl]-3'-methyl-2'-(piperidin-1-yl)-3,4'-bipyridine-2-carboxylic acid]	507 nM	0.7 nM		
O=C(Nc1nc2ccccc2s1)c1cccc2c1CN(c1ccc(-c3ccnc(OC4CCCCC4)c3)c(C(=O)O)n1)CC2 [Example 139, 6-[8-(1,3-benzothiazol-2-ylcarbamoyl)-3,4-dihydroisoquinolin-2(1H)-yl]-2'-(cyclohexyloxy)-3,4'-bipyridine-2-carboxylic acid]	> 1000 nM	0.4 nM		
CC1(C)CCCC(Cn2cc(-c3ccc(N4CCc5cccc(C(=O)Nc6nc7ccccc7s6)c5C4)nc3C(=O)O)cn2)C1 (stereo not shown) [Example 92, 6-[8-(1,3-benzothiazol-2-ylcarbamoyl)-3,4-dihydroisoquinolin-2(1H)-yl]-3-{1-[(3,3-dimethylcyclohexyl)methyl]-1H-pyrazol-4-yl}pyridine-2-carboxylic acid]	56 nM	2 nM		

From EP2768830B1, “APOPTOSIS-INDUCING AGENTS FOR THE TREATMENT OF CANCER AND IMMUNE AND AUTOIMMUNE DISEASES” (AbbVie Inc., priority 2011, dated 2013)
